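Step 1: Grow cells in 96-well plates. Step 2: Expose to compound for 48 hours at 5 concentrations. Step 3: Interpolate endpoints linearly; if unreached, use highest concentration. TGI: total growth inhibition.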
How the values were obtained:
Assay in all cases: NCI-60 cell line screen, 48 h
RPMI-8226 leukemia = tested on: RPMI-8226 leukemia
KM12 colon = tested on: KM12 colon
UACC-62 melanoma = tested on: UACC-62 melanoma
786-0 renal = tested on: 786-0 renal
CAKI-1 renal = tested on: CAKI-1 renal
SW-620 colon = tested on: SW-620 colon
HCC-2998 colon = tested on: HCC-2998 colon
UACC-257 melanoma = tested on: UACC-257 melanoma
SNB-75 CNS = tested on: SNB-75 CNS
SK-MEL-5 melanoma = tested on: SK-MEL-5 melanoma
TK-10 renal = tested on: TK-10 renal
HOP-92 NSCLC = tested on: HOP-92 NSCLC
OVCAR-4 ovarian = tested on: OVCAR-4 ovarian
SF-539 CNS = tested on: SF-539 CNS
SF-295 CNS = tested on: SF-295 CNS
SNB-19 CNS = tested on: SNB-19 CNS
DLD-1 colon = tested on: DLD-1 colon
SK-MEL-2 melanoma = tested on: SK-MEL-2 melanoma
HCT-116 colon = tested on: HCT-116 colon
IGROV1 ovarian = tested on: IGROV1 ovarian
MALME-3M melanoma = tested on: MALME-3M melanoma
OVCAR-8 ovarian = tested on: OVCAR-8 ovarian
HCT-15 colon = tested on: HCT-15 colon
HOP-62 NSCLC = tested on: HOP-62 NSCLC
ACHN renal = tested on: ACHN renal
EKVX NSCLC = tested on: EKVX NSCLC
SK-MEL-28 melanoma = tested on: SK-MEL-28 melanoma
LOX IMVI melanoma = tested on: LOX IMVI melanoma
M19-MEL melanoma = tested on: M19-MEL melanoma
OVCAR-3 ovarian = tested on: OVCAR-3 ovarian
K-562 leukemia = tested on: K-562 leukemia
SK-OV-3 ovarian = tested on: SK-OV-3 ovarian
SF-268 CNS = tested on: SF-268 CNS
U251 CNS = tested on: U251 CNS
NCI-H460 lung = tested on: NCI-H460 lung
HL-60(TB) leukemia = tested on: HL-60(TB) leukemia
MOLT-4 leukemia = tested on: MOLT-4 leukemia
DMS 114 small cell lung = tested on: DMS 114 small cell lung
A498 renal = tested on: A498 renal
SNB-78 CNS = tested on: SNB-78 CNS
KM20L2 colon = tested on: KM20L2 colon
LXFL 529 NSCLC = tested on: LXFL 529 NSCLC
A549 NSCLC = tested on: A549 NSCLC
UO-31 renal = tested on: UO-31 renal
OVCAR-5 ovarian = tested on: OVCAR-5 ovarian
M14 melanoma = tested on: M14 melanoma
CCRF-CEM leukemia = tested on: CCRF-CEM leukemia
COLO 205 colon = tested on: COLO 205 colon
SR leukemia = tested on: SR leukemia
NCI-H522 lung = tested on: NCI-H522 lung
HT29 colon = tested on: HT29 colon
SN12C renal = tested on: SN12C renal
NCI-H226 lung = tested on: NCI-H226 lung
NCI-H23 lung = tested on: NCI-H23 lung
XF 498 CNS = tested on: XF 498 CNS

Measured: TGI

COc1cccc(NC(=O)/C(CC(=O)CC(c2ccccc2)c2c(O)c3ccccc3oc2=O)=N\NC(C)(C)C)c1OC (centres undefined)
not listed: SR leukemia | NCI-H522 lung | HT29 colon | SN12C renal | NCI-H226 lung | NCI-H23 lung | XF 498 CNS
> 100 µM: all other assays above

COc1cc(/C=C(\C#N)C(=O)c2ccccc2)ccc1O
not listed: SNB-75 CNS | HOP-92 NSCLC | DLD-1 colon | DMS 114 small cell lung
> 100 µM: all other assays above

Reference: PubChem BioAssay (NCI)
